In US11225460B2, “Pyrrolidineamide derivatives and uses thereof” (SUNSHINE LAKE PHARMA CO., LTD., priority 2019, dated 2022):

Target: T1, potassium channel of hERG (Homo sapiens, UniProt Q12809)
T1 construct: expressed in transfected cells; host or cells: HEK-293 cells
Experiment: Inhibitory effect on potassium channel of hERG by electrophysiological manual patch clamp
Format: cell-based
Conditions: HEK-293 cells overexpressed potassium channel of hERG, 0.37-30.00 μM, read-out: IC50 acting on hERG potassium channel
Description: The cell line was derived from HEK-293 cells overexpressed potassium channel of hERG.
The cells were cultured in a5% CO2 incubator at 37° C. When the cell density reached 80% of the culture dish, the cells were pre-cleaned with phosphate buffer (PBS), and then digested with trypsin/EDTA for 2-3 minutes. and then the cell culture medium was added to stop digestion. The cells were blew with a pipette gently and transferred to a centrifugal tube. The cells were centrifuged for 3 minutes at 1,000 rpm. The supernatant was poured out. The cell culture medium was added and blew gently to mix the cells well. Then the cells were transferred to a culture dish for subculture, or the cells were dropped onto a circular slide and placed in a culture dish until cell adherence for experiment. […]
hERG potassium channel current was recorded by using the whole cell recording mode. Firstly, the extracellular fluid (about 2 milliliters per minute) was perfused and recorded continuously, and waiting the current stabilization (Run-Down was less than 5% in 5 minutes). […] Then the extracellular fluid containing the tested compounds was perfused (the concentration of the tested compounds were 0.37 μM, 1.10 μM, 3.30 μM, 10.00 μM and 30.00 μM, respectively) and current value was recorded continuously until the inhibitory effect of the tested compounds on hERG current reached a stable state. […]

T1 sequence (Q12809 whole entry): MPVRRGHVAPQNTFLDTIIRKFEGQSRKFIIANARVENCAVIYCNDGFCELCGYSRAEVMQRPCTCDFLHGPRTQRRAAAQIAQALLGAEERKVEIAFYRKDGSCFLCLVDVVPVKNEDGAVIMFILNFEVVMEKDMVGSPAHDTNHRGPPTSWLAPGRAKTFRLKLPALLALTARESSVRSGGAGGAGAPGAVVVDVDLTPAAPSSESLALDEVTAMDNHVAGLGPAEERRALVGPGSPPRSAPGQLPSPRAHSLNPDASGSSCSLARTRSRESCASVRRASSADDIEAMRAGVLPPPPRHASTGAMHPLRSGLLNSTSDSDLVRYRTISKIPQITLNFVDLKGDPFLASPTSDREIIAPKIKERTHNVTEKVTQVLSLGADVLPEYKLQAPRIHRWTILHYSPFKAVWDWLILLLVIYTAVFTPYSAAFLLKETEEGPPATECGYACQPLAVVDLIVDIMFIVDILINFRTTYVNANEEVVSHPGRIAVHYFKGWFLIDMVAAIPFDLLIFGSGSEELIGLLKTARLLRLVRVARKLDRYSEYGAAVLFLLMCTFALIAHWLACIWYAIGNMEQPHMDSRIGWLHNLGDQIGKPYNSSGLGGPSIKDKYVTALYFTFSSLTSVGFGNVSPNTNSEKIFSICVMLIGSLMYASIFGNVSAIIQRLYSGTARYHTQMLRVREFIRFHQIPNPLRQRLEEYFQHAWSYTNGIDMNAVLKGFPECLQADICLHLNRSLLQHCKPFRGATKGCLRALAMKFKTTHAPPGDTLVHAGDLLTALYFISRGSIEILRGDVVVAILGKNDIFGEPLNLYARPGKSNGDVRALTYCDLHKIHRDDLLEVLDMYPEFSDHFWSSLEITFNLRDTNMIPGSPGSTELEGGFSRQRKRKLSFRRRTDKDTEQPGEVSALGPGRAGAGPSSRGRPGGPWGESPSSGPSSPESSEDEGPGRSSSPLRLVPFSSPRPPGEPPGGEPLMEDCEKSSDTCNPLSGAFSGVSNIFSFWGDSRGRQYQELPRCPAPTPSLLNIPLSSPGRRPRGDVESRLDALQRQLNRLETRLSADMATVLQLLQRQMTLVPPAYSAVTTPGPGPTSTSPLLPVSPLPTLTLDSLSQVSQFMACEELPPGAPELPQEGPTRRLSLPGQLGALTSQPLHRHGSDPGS

NC(=O)[C@@H]1C[C@H](F)CN1Cc1ccc(OCc2cccc(F)c2)cc1 [Example 1, (2S,4S)-4-fluoro-1-(4-(3-fluorobenzyloxy)benzyl)pyrrolidine-2-formamide]
IC50: > 30 µM
